Test results from PMC7710018, “Restoration of motor learning in a mouse model of Rett syndrome following long-term treatment with a novel small-molecule activator of TrkB” (Disease Models & Mechanisms, 2020).
Entries after “also recorded” stand apart in the source; their conditions may differ. Where two headings read alike, the source gives them in different places.

Assays:
[1] = test system: 4 different strains of Salmonella typhimurium; test: AMES DNA mutagenesis (Cerep); assay type: cell-based; settings: 5, 10, 50 and 100 µM; 4 strains
Procedure: To evaluate the relative binding specificity of LM22A-4 ([Massa et al., 2010]) and PTX-BD4-3, binding to a broad range of 55 pharmacologically relevant receptors, including numerous neurotransmitter and G-protein coupled receptors was assessed using standard radioligand competition binding assays (ExpressSProfile) performed by Cerep, Inc. (Seattle, WA, USA). In addition, ADME-Tox analysis was performed by Cerep, Inc. All experimental conditions are described on the Cerep website (www.cerep.fr).
Aqueous Human CYP inhibition (10µM) AMES hERG solubility hepatocyte DNA testing
(µM) metabolic mutagenesis
PTX‐BD4‐3 200 >60 negative negative negative
Table S2. Solubility, metabolism and toxicity screens for LM22A-4 and PTX-BD4-3. Standardized assays of solubility, metabolic stability and in vitro toxicity were performed to further evaluate the potential of PTX-BD4-3 as a lead candidate molecule for the treatment of Rett syndrome, and to compare its profile to that of the parent compound LM22A-4. Aqueous solubility of both compounds, which is used as a surrogate measure of absorption, was at or near the assay maximum of 200 µM. The metabolic stability of both compounds at 10 µM was evaluated at 5 different time points in […] and found to be >60 min, indicating favorable stability. […]

[2] = Brain:plasma partitioning (LC-MS/MS); assay type: in vivo, mouse; settings: mice; for concentration at 1 h / concentration at 3 h / Kp at 1 h / Kp at 3 h / plasma levels: 50 mg/kg i.p.; for Kp at 1 h / Kp at 3 h: brain/plasma, read-out: brain-to-plasma ratio; for concentration at 1 h / Kp at 1 h / plasma levels: 1 h; for plasma levels: in nM (unit assumed)
Procedure: Brain and plasma concentrations of LM22A-4, PTX-BD4-3 and atenolol were determined by LC-MS/MS by Absorption Systems (Exton, PA, USA). Male C57BL/6 were dosed intraperitoneally one time with LM22A-4 or PTX-BD4-3 suspended in water at 50 mg/kg (10 ml/kg). Mice were sacrificed at 1 h or 3 h post dose (n=3-4 mice/time point), and brain and plasma samples were collected.
Figure S1. Brain and plasma levels, and brain to plasma ratios for […]
PTX-BD4-3 following IP administration in Wt mice. Brain and plasma levels were determined by LC-MS/MS and used to calculate the brain:plasma ratios at 1 and 3 hours after IP administration of 50 mg/kg LM22A-4 (black), or PTX- […]
in mice (n=11-12 mice/time point; data shown are mean + s.e.m.)
*p<0.05 compared to LM22A-4 at same time point; one-tailed Student’s t-test. […]

[3] = test system: 3T3-TrkB cells; test: NIH-3T3 cell survival (ViaLight); assay type: cell-based, mouse; settings: 72-96 h
Procedure: Fig. 2. PTX-BD4-3 promotes cell survival preferentially through TrkB. (A-D) Neurotrophin receptor-expressing NIH-3T3 cells were incubated in culture medium (CM) alone or in medium plus either the indicated neurotrophins (BDNF, NGF, NT-3) or PTX-BD4-3 or its parent compound LM22A-4 for 72-96 h, after which survival was measured using the ViaLight assay. […] Scale bar: 10 μm. (B) Survival dose-response curves for PTX-BD4-3 and LM22A-4 in 3T3-TrkB cells. ^§P≤0.001 compared to CM alone. (C) Representative images of 3T3-TrkA, 3T3-TrkC and 3T3-p75 cells grown in the presence of CM alone, CM+neurotrophin or CM+PTX-BD4-3. Scale bar: 10 μm. NGF, NT-3 and BDNF served as positive controls for 3T3-TrkA, 3T3-TrkC and 3T3-p75 cells, respectively. (D) PTX-BD4-3 (1000 nM) had no effect on survival of 3T3-TrkA, 3T3-TrkC or 3T3-p75 cells compared to medium alone. *P≤0.05, ***P≤0.001 compared to CM alone. For each determination in B and D, n=10-32 wells derived from four to five independent experiments. Statistical significance was determined by one-way ANOVA with Dunnett's post hoc multiple comparison test. (E,F) […] protein was extracted from human cementoblast-like cell (HCEM) cultures treated with either culture medium alone, BDNF, LM22A-4 or PTX-BD4-3, immunoprecipitated with anti-TrkB antibody and then probed sequentially on western blots with anti-Shc and anti-TrkB antibody. The ratio of Shc to TrkB in treated cultures was normalized and compared to control (CM alone) using Kruskal-Wallis ANOVA followed by Dunn's multiple comparisons test (*P≤0.05, ^§P≤0.001). n=13 independent experiments, and each protein sample was run on duplicate western blots and the normalized values averaged. RLUs, relative light units.
Mouse NIH-3T3 cells expressing TrkA (NIH-3T3-TrkA) were provided by Dr William Mobley (University of California at San Diego, San Diego, CA, USA), and NIH-3T3 cells expressing TrkB (NIH-3T3-TrkB) or TrkC (NIH-3T3-TrkC) were provided by Dr David Kaplan (University of Toronto, Toronto, ON, Canada). Cells were propagated in Dulbecco's modified Eagle medium (DMEM) supplemented with 10% fetal bovine serum (FBS; Invitrogen) and 200-400 µg/ml Geneticin. Cells were seeded into 24-well plates (30,000 cells/well) and cultured in medium consisting of 50% PBS and 50% DMEM without supplements. Following exposure to BDNF (20 ng/ml, 0.7 nM) or 10-1000 nM LM22A-4 or PTX-BD4-3 for 72-96 h, cells were suspended in 50 µl lysis buffer, transferred to white, opaque 96-well culture plates and survival was measured using the ViaLight Assay (Lonza Group, Rockland, ME, USA).

[4] = male, C57BL/6, mouse, brain, ip, read-out: brain levels
[5] = male, C57BL/6, mouse, plasma, ip, read-out: plasma level

SMILES	AMES DNA mutagenesis [1]	concentration at 1 h [2, 4] [nM]	concentration at 3 h [2, 4] [µM]	Kp at 1 h ([2]; male, C57BL/6, mouse, ip)	Kp at 3 h ([2]; male, C57BL/6, mouse, ip)	concentration at 3 h [2, 5] [µM]	plasma levels [2]	survival of 3T3-TrkB cells ([3]; 1000 nM, representative images)	half-life ([2]; male, C57BL/6, mouse, brain and plasma, ip, 50 mg/kg, systemic (i.p.) administration) [min]	survival of 3T3-TrkB cells ([3]; serum-free medium, ViaLight, compounds 10-1000 nM dose-response, BDNF 20 ng/ml)
O=C(NCCO)c1cc(C(=O)NCCO)cc(C(=O)NCCO)c1 [LM22A-4, N,N′,N′′-tris(2-hydroxyethyl)-1,3,5-benzenetricarboxamide, reference compound]	negative	200	0.0532	0.0268	0.133	2350	9193.46	support the survival		
COCCN(C)C(=O)c1cc(C(=O)N(C)CCOC)cc(C(=O)N(C)CCOC)c1 [PTX-BD4-3, benzene-1,3,5-tricarboxylic acid tris-[(2-methoxy-ethyl)-methyl-amide]]	negative; also recorded: no activity	227	0.0361	0.0329	0.271	361	10011.16	support the survival	< 180	promoted survival
